Reference: patent US20220073941A1, “HERBICIDE-RESISTANT CAMELINA SATIVA PLANTS, AND VARIANT CAMELINA ACETOHYDROXYACID SYNTHASE POLYPEPTIDES” (priority 2019, published 2022)

Assays:
Assay type in all cases: in vivo, Camelina sativa
12CS0366 = assay: Greenhouse dose-response to thifensulfuron-methyl, plant height and dry biomass (Example 6)
12CS0365 = assay: as above
[1] = test system: resistant lines 12CS0365, 12CS0366, 13CS0786; assay: Phenotype scoring (resistant/susceptible) 7 d after 2.5 g ai/ha thifensulfuron-methyl (Example 5)
Description: (§1) At a thifensulfuron-methyl application rate of 2.5 g ai/ha, plants from parental, F2, BC1F1, and BC4F2 populations could easily be scored into one of two discrete phenotypic classes (R, resistant or S, susceptible) 7 d after herbicide application.

[2] = test system: susceptible controls SRS 934, 10CS0048; assay: as above; details: 7 d after application
Description: as §1

Structure (SMILES): COC(=O)c1sccc1S(=O)(=O)NC(=O)Nc1nc(C)nc(OC)n1 [thifensulfuron-methyl]
- Ratio of ED50 biomass values, estimate (12CS0366; 12CS0366/13CS0786): 0.0968
- Ratio of ED50 height values, estimate (12CS0366; 12CS0366/13CS0786): 0.20
- Ratio of ED50 biomass values, estimate (12CS0366; 12CS0366/SRS 934): 99.70
- Ratio of ED50 height values, estimate (12CS0366; 12CS0366/SRS 934): 36.9
- Ratio of ED50 biomass values, estimate (12CS0365; 12CS0365/12CS0366): 0.08
- Ratio of ED50 height values, estimate (12CS0365; 12CS0365/12CS0366): 0.35
- Ratio of ED50 biomass values, estimate (12CS0365; 12CS0365/13CS0786): 0.008
- Ratio of ED50 height values, estimate (12CS0365; 12CS0365/13CS0786): 0.02
- Ratio of ED50 biomass values, estimate (12CS0365; 12CS0365/SRS 934): 7.93
- Ratio of ED50 height values, estimate (12CS0365; 12CS0365/SRS 934): 12.72
- phenotype after herbicide application [1]: consistently produced a resistant phenotype
- phenotype after herbicide application [2]: either killed or greatly damaged
